The test addresses T1, mGluR2 receptor (metabotropic glutamate receptor 2) (Homo sapiens, UniProt Q14416).
T1 construct: expressed in transfected cells
Put plainly: mGluR2 Potentiator Screen, FLIPR, EC10-EC20 glutamate challenge. Type of test: cell-based. The method, then: Procedure for mGluR2 Potentiator Screen NLB methods EC10-EC20 Challenge Cell Culture and Plating:
Cells used for this screen are HEK cells stably transfected with the mGluR2 receptor (metabotropic glutamate receptor 2) and the Gα15 G protein. Clones were identified by functional activity (FLIPR). Cells are grown in growth media containing: DMEM High Glucose with Glutamine and Na Pyruvate (GIBCO), 10% (v/v) Heat inactivate FBS (GIBCO), G418 500 ug/ml (from 50 mg/ml stock) (GIBCO) and Blasticidin 3 ug/ml (from 5 mg/ml stock made in H2O) (Invitrogen).
2 days before the assay cell are trypsinized with 0.25% trysin/EDTA (GIBCO), spun down at 1000 rpm for 5 minutes, resuspended in growth media and plated on polystyrene 384 well black wall 1 clear bottom poly-D-lysine coated plates at a density of approximately 18,000 cells/well in a volume of 50 μL per well. One day before the assay the growth media is removed from the plates by flicking, and replaced with media containing DMEM High Glucose without Glutamine and Na Pyruvate (GIBCO) and 10% (v/v) dialyzed FBS (GIBCO). The reason for the removal of glutamine the day before the assay is to minimize the amount of glutamate that will be present during the assay, as endogenous glutarnate released from the cells can reduce the fluorescent response and interfere with the FLIPR screen.
FLIPR Methods and Data Analysis:
On the day of the assay, the FLIPR assay is performed using the following methods.
The pH is adjusted to 7.4 with 1 M NaOH. Prepare a 2 mM (approx.) stock solution of Fluo-4,am (Molecular Probes) dye in DMSO-22 μl DMSO per 50 ug vial (440 μL per 1 mg vial). Make a 1 mM (approx.) flou-4, PA working solution per vial by adding 22 μl of 20% pluronic acid (PA), (Molecular Probes) in DMSO to each 50 ug vial (440 μL per 1 mg vial). Prepare a 250 mM Probenecid (Sigma) stock solution by dissolving 0.71 g into 5 ml 1N NaOH and 5 ml assay buffer (for each liter of assay wash buffer)L Make 4 uM (approx.) dye incubation media by adding […] per 11 ml DMEM high glucose without glutamine (220 ml per 1 mg vial). Add 110 μL probenecid stock per 11 ml (2.5 mM final [concentration]). To the dye media add 3 units/ml of glutamic-pyruvic transaminase (GPT, Sigma) and 3 mM Na Pyruvate. The assay has worked with dye concentrations from 2 uM to 8 uM dye as well. To the assay buffer from drug preparation, add 1.83 mls DMSO and 400 μL 15.8% P104 (from New Leads biology) per liter for final concentrations of 0.18% DMSO and 0.006% P104. To the assay buffer for cell washing, add probenecid in the same manner and concentration that was used for the dye media.
Remove growth media from cell plates by flicking. Add 50 μl/well dye solution. Incubate 1 hour at 37° C. and 5% CO2. Remove dye solution and wash 3 times with assay buffer+probenecid (100 μl probenecid stock per 10 ml buffer), leaving 30 μL/well assay buffer. Wait at least 10-15 minutes. Compounds and agonist challenge additions are performed with the FLIPR. The 1st addition is for test compounds, which are added as 15 μL of 4×[concentration] of potentiator. The second 2nd addition is 15 μL of 4×[concentration] of agonist or challenge. This achieves 1× concentration of all compounds only after 2nd addition. The 1st and 2nd additions are performed separately using the FLIPR, which give 2 different data files. Compounds are pretreated at least 30 minutes before agonist addition,
Results are analyzed by dividing the peak fluorescent value of the FLIPR response by the […] to achieve a ratio response. The ratios are then analyzed by curve fitting programs. […] Maximum values for dose response curves (forced fitting) are derived from standards on the plate.
Compound Preparation and Glutamate Challenge:
Compounds are delivered as 10 mM DMSO stocks or as powders, Powders are solubilized in DMSO at 10 mM (as solubility allows). Compounds are sonicated in a heated water bath (35-40° C.) for at least 20 minutes.

[1] abbreviates: HEK cells stably transfected with mGluR2 and Gα15, FLIPR (Fluo-4), potentiation of an EC10 to EC20 concentration of glutamate, Table 9.
[2] abbreviates: mGluR2 potentiator screen, FLIPR, EC10-EC20 glutamate challenge.

Where two headings read alike, the source gives them in different places. Some results are limits rather than exact numbers.

T1 sequence (Q14416 19-872, species assumed): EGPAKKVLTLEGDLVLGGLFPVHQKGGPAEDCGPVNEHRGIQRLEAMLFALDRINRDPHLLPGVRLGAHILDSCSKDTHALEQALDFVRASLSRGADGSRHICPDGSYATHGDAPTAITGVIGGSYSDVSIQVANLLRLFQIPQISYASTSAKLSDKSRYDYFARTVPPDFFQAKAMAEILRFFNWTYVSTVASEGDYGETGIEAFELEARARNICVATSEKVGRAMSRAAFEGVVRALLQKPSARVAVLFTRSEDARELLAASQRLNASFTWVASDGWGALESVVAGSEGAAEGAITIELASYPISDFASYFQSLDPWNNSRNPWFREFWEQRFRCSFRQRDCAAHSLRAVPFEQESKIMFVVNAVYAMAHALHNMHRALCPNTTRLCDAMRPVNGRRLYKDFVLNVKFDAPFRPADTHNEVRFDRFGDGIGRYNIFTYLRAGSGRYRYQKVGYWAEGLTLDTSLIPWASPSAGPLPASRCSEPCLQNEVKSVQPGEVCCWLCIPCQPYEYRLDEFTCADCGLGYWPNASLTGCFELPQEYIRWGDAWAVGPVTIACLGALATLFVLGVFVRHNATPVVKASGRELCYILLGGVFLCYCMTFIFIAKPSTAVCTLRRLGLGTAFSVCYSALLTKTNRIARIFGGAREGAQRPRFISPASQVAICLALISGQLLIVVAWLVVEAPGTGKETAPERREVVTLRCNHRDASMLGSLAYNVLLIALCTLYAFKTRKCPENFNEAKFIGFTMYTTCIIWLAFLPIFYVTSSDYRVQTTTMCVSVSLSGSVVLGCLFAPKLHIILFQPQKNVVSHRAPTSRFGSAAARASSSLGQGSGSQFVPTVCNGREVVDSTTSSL

As usually defined, the EC50 is the midpoint of the concentration-response curve. Regarding `C[C@H]1CN(Cc2nc3ncccc3n2C)CC[C@H]1c1ccc(Cl)cc1F` [compound 123], the EC50 was more than 1810 nM.
For the compound `Cn1c(CN2CCC(c3ccc(Cl)c(F)c3)CC2)nc2cnccc21` [compound 107], the EC50 was determined as 315 nM.
For `Cn1c(CN2CCC(c3ccccc3F)CC2)nc2cnccc21` [compound 49], the EC50 stood at 1050 nM.
For `C[C@@H]1CN(Cc2nc3cnccc3n2C)CC[C@@H]1c1cc(F)c(F)cc1F` (single isomer, unassigned) [compound 225], the EC50 stood at 95 nM.
Consider `COc1cc(F)ccc1[C@H]1CCN(Cc2nc3nccc4c3n2CCC4)C[C@H]1C` (relative stereo) [Example 134, 2-{[Cis-4-(4-fluoro-2-methoxyphenyl)-3-methylpiperidin-1-yl]methyl}-5,6-dihydro-4H-imidazo[4,5,1-ij]-1,7-naphthyridine], for which the EC50 is 30.2 nM. Further, the EC50 under setting [1] stood at 30.2 nM.
On to `C[C@@H]1CN(Cc2nc3cnccc3n2C)CC[C@@H]1c1ccc(F)c(C(F)(F)F)c1` (relative stereo) [compound 198], for which the EC50 was 176 nM.
Still for that read-out and setting: the value for `C[C@@H]1CN(Cc2nc3cnccc3n2C)CC[C@@H]1c1ccc(C(F)(F)F)cc1Cl` (single isomer, unassigned) [compound 172] was 48.5 nM.
On to `Cc1cc(C2CCN(Cc3nc4ncccc4n3C)CC2)ccc1C(F)(F)F` [compound 277], for which, under setting [2], the EC50 turned out to be 60.5 nM.
In the case of `C[C@@H]1CN(Cc2nc3cnccc3n2C)CC[C@@H]1c1ccc(OC(F)(F)F)cc1F` (relative stereo) [compound 146], the EC50 came out at 55.5 nM.
Consider `C[C@@H]1CN(Cc2nc3ncccc3n2C)CC[C@@H]1c1ccc(OC(F)(F)F)c(Cl)c1` (relative stereo) [compound 213], for which the EC50 came to 253 nM.
With `FC(F)(F)c1ccc(C2CCN(Cc3nc4nccc5c4n3CCC5)CC2)cc1` [Example 126, 2-({4-[4-(trifluoromethyl)phenyl]-piperidin-1-yl}methyl)-5,6-dihydro-4H-imidazo[4,5,1-ij]-1,7-naphthyridine], the EC50 amounted to 62.6 nM. Moreover, the EC50 under setting [1] came out at 62.6 nM.
As to `C[C@@H]1CN(Cc2nc3cnccc3n2C)CC[C@@H]1c1ccc(OC(F)F)cc1` (relative stereo) [compound 178], the EC50 is more than 1350 nM.
Consider `Cn1c(CN2CCC(c3ccc(OC(F)(F)F)cc3)CC2)nc2cnccc21` [compound 237], for which, under setting [2], the EC50 was determined as 160 nM.
For the compound `C[C@@H]1CN(Cc2nc3cnccc3n2C)CC[C@@H]1c1ccc(C(F)(F)F)c(F)c1` (single isomer, unassigned) [compound 184], the EC50 was more than 2710 nM.
For the compound `C[C@@H]1CN(Cc2nc3ncccc3n2C)CC[C@@H]1c1ccc(OC(F)(F)F)cc1Cl` (single isomer, unassigned) [compound 256], the EC50 under setting [2] was more than 704 nM.
On to `Cc1ccc(C)c(C2CCN(Cc3nc4ncccc4n3C)CC2)c1` [compound 61], for which the EC50 stood at 290 nM.
For `COc1cc(F)ccc1[C@H]1CCN(Cc2nc3cnccc3n2C)C[C@H]1C` (relative stereo) [compound 133], the EC50 worked out at 53.7 nM.
Turning to `Cn1c(CN2CCC(c3ccc(C(F)(F)F)cc3)CC2)nc2ncccc21` [compound 52], the EC50 is 47.9 nM.
Regarding `COc1ccc(C2CCN(Cc3nc4ncccc4n3C)CC2)c(C(F)(F)F)c1` [compound 271], the EC50 under setting [2] was found to be 494 nM.
As to `Cc1cc(F)ccc1[C@H]1CCN(Cc2nc3cnccc3n2C)C[C@H]1C` (relative stereo) [compound 205], the EC50 was 243 nM.
Consider `COc1cc(F)ccc1[C@H]1CCN(Cc2nc3ncccc3n2C)C[C@H]1C` (relative stereo) [compound 132], for which the EC50 came to 78.5 nM.
As for `C[C@@H]1CN(Cc2nc3cnccc3n2C)CC[C@@H]1c1ccc(C(F)(F)F)cc1C(F)(F)F` (relative stereo) [compound 150], the EC50 was 207 nM.
With `C[C@@H]1CN(Cc2nc3ncccc3n2C)CC[C@@H]1c1ccc(OC(F)(F)F)cc1` (relative stereo) [compound 157], the EC50 amounted to 277 nM.
`C[C@@H]1CN(Cc2nc3cnccc3n2C)CC[C@@H]1c1ccc(C(F)(F)F)c(F)c1` (single isomer, unassigned) [compound 183]: the EC50 turned out to be 53.2 nM.
Same read-out and setting: in the case of `Cn1c(CN2CCC(c3ccc(F)cc3F)CC2)nc2ncccc21` [compound 82] it was 251 nM.
Take `Cn1c(CN2CCC(c3ccc(OC(F)(F)F)cc3)CC2)nc2ncccc21` [compound 231]: the EC50 under setting [2] was 84.5 nM.
On to `COc1cc(C(F)(F)F)ccc1[C@H]1CCN(Cc2nc3cnccc3n2C)C[C@H]1C` (single isomer, unassigned) [compound 141], for which the EC50 was found to be 1310 nM.
Same read-out and setting: the value for `Cc1ccccc1C1CCN(Cc2nc3ncccc3n2C)CC1` [compound 89] was 823 nM.
As to `COc1cc(OC(F)(F)F)ccc1[C@H]1CCN(Cc2nc3ncccc3n2C)C[C@H]1C` (relative stereo) [compound 215], the EC50 is 59.4 nM.
As to `C[C@@H]1CN(Cc2nc3ncccc3n2C)CC[C@@H]1c1ccc(C(F)(F)F)c(Cl)c1` (relative stereo) [compound 234], under setting [2], the 50% effective concentration (EC50) turned out to be 101 nM.
For `COc1cc(OC(F)(F)F)ccc1C1CCN(Cc2nc3ncccc3n2C)CC1` [compound 281], under setting [2], the EC50 is 99.7 nM.
Turning to `Cn1c(CN2CCC(c3ccc(Cl)cc3)CC2)nc2ncccc21` [compound 80], the EC50 was more than 9110 nM.
Take `COc1ccc(Cl)cc1C1CCN(Cc2nc3ncccc3n2C)CC1` [compound 43]: the EC50 came to 203 nM.
For `COc1cc(C(F)(F)F)ccc1C1CCN(Cc2nc3cnccc3n2C)CC1` [compound 63], the EC50 was found to be 834 nM.
Take `C[C@@H]1CN(Cc2nc3cnccc3n2C)CC[C@@H]1c1ccc(C(F)(F)F)c(F)c1` (relative stereo) [compound 148]: the EC50 stood at 71.4 nM.
As for `C[C@@H]1CN(Cc2nc3ncccc3n2C)CC[C@@H]1c1ccc(OC(F)F)cc1Cl` (relative stereo) [compound 203], the EC50 is 43.6 nM.
`CC(C)Oc1ccc([C@H]2CCN(Cc3nc4cnccc4n3C)C[C@H]2C)c(Cl)c1` (relative stereo) [compound 170]: the EC50 came to 284 nM.
As to `Cn1c(CN2CCC(c3cc(C(F)(F)F)ccc3F)CC2)nc2ncccc21` [compound 58], the EC50 is 5950 nM.
`Cn1c(CN2CCC(c3cccc(C(C)(C)C)c3)CC2)nc2ncccc21` [compound 79]: the EC50 worked out at 124 nM.
Consider `CCCOc1ccc(Cl)cc1C1CCN(Cc2nc3cnccc3n2C)CC1` [compound 39], for which the EC50 is 396 nM.
On to `CC(C)Oc1ccc([C@H]2CCN(Cc3nc4cnccc4n3C)C[C@H]2C)c(C(F)(F)F)c1` (relative stereo) [compound 216], for which the EC50 was 287 nM.
For `COc1ccc(C(F)(F)F)cc1C1CCN(Cc2nc3ncccc3n2C)CC1` [compound 55], the EC50 worked out at 211 nM.
As for `C[C@@H]1CN(Cc2nc3ncccc3n2C)CC[C@@H]1c1ccc(Cl)cc1F` (relative stereo) [compound 115], the half-maximal effective concentration (EC50) was found to be 19.5 nM.
With `Cn1c(CN2CCC(c3ccccc3C(F)(F)F)CC2)nc2cccnc21` [compound 50], the EC50 stood at 406 nM.
As to `CC(C)Oc1cc(F)ccc1[C@H]1CCN(Cc2nc3cnccc3n2C)C[C@H]1C` (relative stereo) [compound 192], the EC50 was 1170 nM.
Regarding `Cn1c(CN2CCC(c3c(F)cccc3C(F)(F)F)CC2)nc2ncccc21` [compound 229], the EC50 under setting [2] came to 212 nM.

(Values after patent US20080312271A1, “AZABENZIMIDAZOLYL COMPOUNDS” (Pfizer Inc., priority 2006, published 2008).)
